Experimental data published in patent publication US10570129B2 (Zoetis Services LLC, priority 2015, dated 2020).

Experiments:
Haemonchus contortus L3 = assay: microbe, parasite or virus in culture; assay type: cell-based; settings: Haemonchus contortus, 96 h, read-out: HcL3 Minimal Effective Concentration (MEC)
D. immitis microfilariae = assay: Dirofilaria immitis, microfilariae (DiMF) in vitro motility assay; assay type: cell-based; settings: Dirofilaria immitis, 72 h, read-out: DiMF minimally effective dose (MEC)

O=C(NCc1ccnc(F)c1)n1c2c(c3ccc(OC(F)(F)F)cc31)CN(C/C=C/c1ccc(Cl)cc1Cl)CC2 [Example 370, (E)-2-(3-(2,4-dichlorophenyl)allyl)-N-((2-fluoropyridin-4-yl)methyl)-7-(trifluoromethoxy)-1,2,3,4-tetrahydro-5H-pyrido[4,3-b]indole-5-carboxamide]
minimal effective concentration (Haemonchus contortus L3): 3.3 µM
minimal effective concentration (D. immitis microfilariae): 33 µM

O=C(NCc1ccnc(Cl)c1)n1c2c(c3cc(Br)c(F)cc31)CN(C/C=C/c1ccc(Cl)cc1)CC2 [Example 197, (E)-8-bromo-2-(3-(4-chlorophenyl)allyl)-N-((2-chloropyridin-4-yl)methyl)-7-fluoro-1,2,3,4-tetrahydro-5H-pyrido[4,3-b]indole-5-carboxamide]
minimal effective concentration (Haemonchus contortus L3): 0.4 µM
minimal effective concentration (D. immitis microfilariae): 4.4 µM

O=C(NCc1ccnc(Cl)c1)n1c2c(c3cc(Cl)ccc31)CN(C/C=C/c1ccc(OC(F)(F)F)cc1)CC2 [Example 245, (E)-8-chloro-N-((2-chloropyridin-4-yl)methyl)-2-(3-(4-(trifluoromethoxy)-phenyl)allyl)-1,2,3,4-tetrahydro-5H-pyrido[4,3-b]indole-5-carboxamide]
minimal effective concentration (Haemonchus contortus L3): 3.3 µM
minimal effective concentration (D. immitis microfilariae): 11.9 µM

O=C(NCc1ccnc(Cl)c1)n1c2c(c3cc(F)c(Cl)cc31)CN(C/C=C/c1cc(F)c(F)c(F)c1)CC2 [Example 301, (E)-7-chloro-N-((2-chloropyridin-4-yl)methyl)-8-fluoro-2-(3-(3,4,5-trifluorophenyl)allyl)-1,2,3,4-tetrahydro-5H-pyrido[4,3-b]indole-5-carboxamide]
minimal effective concentration (Haemonchus contortus L3): 0.2 µM
minimal effective concentration (D. immitis microfilariae): 18.2 µM

O=C(NCc1ccnc(Cl)c1)n1c2c(c3cccc(Cl)c31)CN(C/C=C/c1ccc(Cl)c(Cl)c1)CC2 [Example 268, (E)-6-chloro-N-((2-chloropyridin-4-yl)methyl)-2-(3-(3,4-dichlorophenyl)allyl)-1,2,3,4-tetrahydro-5H-pyrido[4,3-b]indole-5-carboxamide]
minimal effective concentration (Haemonchus contortus L3): > 100 µM
minimal effective concentration (D. immitis microfilariae): 10 µM

O=C(NCc1ccnc(Cl)c1)n1c2c(c3ccc(OC(F)(F)F)cc31)CN(C/C=C/c1cc(F)c(F)c(F)c1)CC2 [Example 350, (E)-N-((2-chloropyridin-4-yl)methyl)-7-(trifluoromethoxy)-2-(3-(3,4,5-trifluorophenyl)allyl)-1,2,3,4-tetrahydro-5H-pyrido[4,3-b]indole-5-carboxamide]
minimal effective concentration (Haemonchus contortus L3): 0.2 µM
minimal effective concentration (D. immitis microfilariae): 1.3 µM

COc1cc2c3c(n(C(=O)NCc4ccnc(Cl)c4)c2cc1C(F)(F)F)CCN(C/C=C/c1ccc(Cl)cc1)C3 [Example 329, (E)-2-(3-(4-chlorophenyl)allyl)-N-((2-chloropyridin-4-yl)methyl)-8-methoxy-7-(trifluoromethyl)-1,2,3,4-tetrahydro-5H-pyrido[4,3-b]indole-5-carboxamide]
minimal effective concentration (Haemonchus contortus L3): 0.3 µM
minimal effective concentration (D. immitis microfilariae): 1.8 µM

O=C(NCc1ccnc(F)c1)n1c2c(c3cc(Br)ccc31)CN(C/C=C/c1ccc(Cl)cc1)CC2 [Example 192, (E)-8-bromo-2-(3-(4-chlorophenyl)allyl)-N-((2-fluoropyridin-4-yl)methyl)-1,2,3,4-tetrahydro-5H-pyrido[4,3-b]indole-5-carboxamide]
minimal effective concentration (Haemonchus contortus L3): 0.7 µM
minimal effective concentration (D. immitis microfilariae): 11.5 µM

N#Cc1ccc(/C=C/CN2CCc3c(c4cc(C(F)(F)F)ccc4n3C(=O)NCc3ccnc(F)c3)C2)cc1F [Example 416, (E)-2-(3-(4-cyano-3-fluorophenyl)allyl)-N-((2-fluoropyridin-4-yl)methyl)-8-(trifluoromethyl)-1,2,3,4-tetrahydro-5H-pyrido[4,3-b]indole-5-carboxamide]
minimal effective concentration (Haemonchus contortus L3): 1.8 µM
minimal effective concentration (D. immitis microfilariae): 57.4 µM

O=C(NCc1ccnc(Cl)c1)n1c2c(c3c(C(F)(F)F)cccc31)CN(C/C=C/c1ccc(Cl)c(Cl)c1)CC2 [Example 159, (E)-N-((2-chloropyridin-4-yl)methyl)-2-(3-(3,4-dichlorophenyl)allyl)-9-(trifluoromethyl)-1,2,3,4-tetrahydro-5H-pyrido[4,3-b]indole-5-carboxamide]
minimal effective concentration (Haemonchus contortus L3): 18.2 µM
minimal effective concentration (D. immitis microfilariae): 10 µM

O=C(NCc1ccnc(Cl)c1)n1c2c(c3c(Cl)c(F)ccc31)CN(C/C=C/c1ccc(Cl)cc1)CC2 [Example 305, (E)-9-chloro-2-(3-(4-chlorophenyl)allyl)-N-((2-chloropyridin-4-yl)methyl)-8-fluoro-1,2,3,4-tetrahydro-5H-pyrido[4,3-b]indole-5-carboxamide]
minimal effective concentration (Haemonchus contortus L3): 0.9 µM
minimal effective concentration (D. immitis microfilariae): 16.5 µM

O=C(NCc1ccnc(Cl)c1)n1c2c(c3ccc(Cl)cc31)CN(C/C=C/c1ccc(F)cc1)CC2 [Example 217, (E)-7-chloro-N-((2-chloropyridin-4-yl)methyl)-2-(3-(4-fluorophenyl)allyl)-1,2,3,4-tetrahydro-5H-pyrido[4,3-b]indole-5-carboxamide]
minimal effective concentration (Haemonchus contortus L3): 1.8 µM
minimal effective concentration (D. immitis microfilariae): 3.3 µM

N#Cc1cc2c(cc1F)c1c(n2C(=O)NCc2ccnc(F)c2)CCN(C/C=C/c2ccc(Cl)cc2)C1 [Example 174, (E)-2-(3-(4-chlorophenyl)allyl)-7-cyano-8-fluoro-N-((2-fluoropyridin-4-yl)methyl)-1,2,3,4-tetrahydro-5H-pyrido[4,3-b]indole-5-carboxamide]
minimal effective concentration (Haemonchus contortus L3): 57.4 µM
minimal effective concentration (D. immitis microfilariae): > 100 µM

O=C(NCc1ccnc(Cl)c1)n1c2c(c3ccc(OC(F)(F)F)cc31)CN(C/C=C/c1c(F)cc(Cl)cc1F)CC2 [Example 339, (E)-2-(3-(4-chloro-2,6-difluorophenyl)allyl)-N-((2-chloropyridin-4-yl)-methyl)-7-(trifluoromethoxy)-1,2,3,4-tetrahydro-5H-pyrido[4,3-b]indole-5-carboxamide]
minimal effective concentration (Haemonchus contortus L3): 0.5 µM
minimal effective concentration (D. immitis microfilariae): 0.5 µM

N#Cc1ccc2c3c(n(C(=O)NCc4ccnc(Cl)c4)c2c1)CCN(C/C=C/c1cc(Br)ccc1F)C3 [Example 11, (E)-2-(3-(5-bromo-2-fluorophenyl)allyl)-N-((2-chloropyridin-4-yl)methyl)-7-cyano-1,2,3,4-tetrahydro-5H-pyrido[4,3-b]indole-5-carboxamide]
minimal effective concentration (Haemonchus contortus L3): 1.8 µM
minimal effective concentration (D. immitis microfilariae): > 100 µM

O=C(NCc1ccnc(Cl)c1)n1c2c(c3cc(Cl)c(Cl)cc31)CN(C/C=C/c1ccc(Cl)c(Cl)c1)CC2 [Example 281, (E)-7,8-dichloro-N-((2-chloropyridin-4-yl)methyl)-2-(3-(3,4-dichlorophenyl)allyl)-1,2,3,4-tetrahydro-5H-pyrido[4,3-b]indole-5-carboxamide]
minimal effective concentration (Haemonchus contortus L3): 1 µM
minimal effective concentration (D. immitis microfilariae): > 100 µM

N#Cc1ccc(/C=C/CN2CCc3c(c4ccc(Br)cc4n3C(=O)NCc3ccnc(Cl)c3)C2)cc1 [Example 441, (E)-7-bromo-N-((2-chloropyridin-4-yl)methyl)-2-(3-(4-cyanophenyl)allyl)-1,2,3,4-tetrahydro-5H-pyrido[4,3-b]indole-5-carboxamide]
minimal effective concentration (Haemonchus contortus L3): > 100 µM
minimal effective concentration (D. immitis microfilariae): 4.4 µM

O=C(NCc1ccnc(Cl)c1)n1c2c(c3ccc(Br)cc31)CN(C/C=C/c1ccc(F)c(F)c1)CC2 [Example 440, (E)-7-bromo-N-((2-chloropyridin-4-yl)methyl)-2-(3-(3,4-difluorophenyl)allyl)-1,2,3,4-tetrahydro-5H-pyrido[4,3-b]indole-5-carboxamide]
minimal effective concentration (Haemonchus contortus L3): 1.8 µM
minimal effective concentration (D. immitis microfilariae): 10 µM

COc1cc2c(cc1Br)c1c(n2C(=O)NCc2ccnc(Cl)c2)CCN(C/C=C/c2ccc(Cl)cc2)C1 [Example 195, (E)-8-bromo-2-(3-(4-chlorophenyl)allyl)-N-((2-chloropyridin-4-yl)methyl)-7-methoxy-1,2,3,4-tetrahydro-5H-pyrido[4,3-b]indole-5-carboxamide]
minimal effective concentration (Haemonchus contortus L3): 0.5 µM
minimal effective concentration (D. immitis microfilariae): 5.7 µM

O=C(NCc1ccnc(Cl)c1)n1c2c(c3cc(N4CCCC4)ccc31)CN(C/C=C/c1ccc(Cl)c(F)c1)CC2 [Example 506, (E)-2-(3-(4-chloro-3-fluorophenyl)allyl)-N-((2-chloropyridin-4-yl)methyl)-8-(pyrrolidin-1-yl)-1,2,3,4-tetrahydro-5H-pyrido[4,3-b]indole-5-carboxamide]
minimal effective concentration (Haemonchus contortus L3): 7.6 µM
minimal effective concentration (D. immitis microfilariae): > 100 µM

CS(=O)(=O)c1ccc(/C=C/CN2CCc3c(c4ccc(C(F)(F)F)cc4n3C(=O)NCc3ccnc(Cl)c3)C2)cc1 [Example 151, (E)-N-((2-chloropyridin-4-yl)methyl)-2-(3-(4-(methylsulfonyl)phenyl)allyl)-7-(trifluoromethyl)-1,2,3,4-tetrahydro-5H-pyrido[4,3-b]indole-5-carboxamide]
minimal effective concentration (Haemonchus contortus L3): > 100 µM
minimal effective concentration (D. immitis microfilariae): 13.5 µM

N#Cc1ccc2c3c(n(C(=O)NCc4ccnc(Cl)c4)c2c1)CCN(C/C=C/c1ccc(Cl)cc1)C3 [Example 34, (E)-2-(3-(4-chlorophenyl)allyl)-N-((2-chloropyridin-4-yl)methyl)-7-cyano-1,2,3,4-tetrahydro-5H-pyrido[4,3-b]indole-5-carboxamide]
minimal effective concentration (Haemonchus contortus L3): 3.3 µM
minimal effective concentration (D. immitis microfilariae): 3.3 µM

O=C(NCc1ccnc(Cl)c1)n1c2c(c3cc(C(F)(F)F)ccc31)CN(C/C=C/c1ccc(F)cc1F)CC2 [Example 412, (E)-N-((2-chloropyridin-4-yl)methyl)-2-(3-(2,4-difluorophenyl)allyl)-8-(trifluoromethyl)-1,2,3,4-tetrahydro-5H-pyrido[4,3-b]indole-5-carboxamide]
minimal effective concentration (Haemonchus contortus L3): 1.8 µM
minimal effective concentration (D. immitis microfilariae): 10 µM

O=C(NCc1ccnc(Cl)c1)n1c2c(c3ccc(N4CCOCC4)cc31)CN(C/C=C/c1ccc(Cl)c(F)c1)CC2 [Example 509, (E)-2-(3-(4-chloro-3-fluorophenyl)allyl)-N-((2-chloropyridin-4-yl)methyl)-7-morpholino-1,2,3,4-tetrahydro-5H-pyrido[4,3-b]indole-5-carboxamide]
minimal effective concentration (Haemonchus contortus L3): 1 µM
minimal effective concentration (D. immitis microfilariae): 18.2 µM
